Common to all, as to parameters: scale not given: the % may be the effect or the level left
The subject of experiment [1] is Avian myeloblastosis virus. The experiment is described as follows: Inhibition of AMV reverse transcriptase activity assessed as incorporation of dGMP in poly(rC)-oligo(dG) at 1000 uM.
In experiment [2] the test system is Avian myeloblastosis virus. The experiment is described as follows: Inhibition of AMV reverse transcriptase activity assessed as incorporation of dGMP in poly(rC)-oligo(dG) at 10 uM.
Experiment [3] concerns Avian myeloblastosis virus. The experiment is described as follows: Inhibition of AMV reverse transcriptase activity assessed as incorporation of dGMP in poly(rC)-oligo(dG) at 100 uM.
For experiment [4], the system named is Avian myeloblastosis virus. The experiment is described as follows: Inhibition of AMV reverse transcriptase activity assessed as incorporation of dTMP in poly(rA)-oligo(dT) at 10 uM.
Experiment [5] concerns Avian myeloblastosis virus. The experiment is described as follows: Inhibition of AMV reverse transcriptase activity assessed as incorporation of dTMP in poly(rA)-oligo(dT) at 1 uM.
Experiment [6] deals with Avian myeloblastosis virus. The experiment is described as follows: Inhibition of AMV reverse transcriptase activity assessed as incorporation of dGMP in poly(rC)-oligo(dG) at 0.1 uM.
In experiment [7] the test system is Avian myeloblastosis virus. The experiment is described as follows: Inhibition of AMV reverse transcriptase activity assessed as incorporation of dGMP in poly(rC)-oligo(dG) at 1 uM.
The subject of experiment [8] is Avian myeloblastosis virus. The experiment is described as follows: Inhibition of AMV reverse transcriptase activity assessed as incorporation of dTMP in poly(rA)-oligo(dT) at 0.1 uM.
In experiment [9] the test system is Avian myeloblastosis virus. The experiment is described as follows: Inhibition of AMV reverse transcriptase activity assessed as incorporation of dTMP in poly(rA)-oligo(dT) at 1000 uM.
Experiment [10] deals with Avian myeloblastosis virus. The experiment is described as follows: Inhibition of AMV reverse transcriptase activity assessed as incorporation of dTMP in poly(rA)-oligo(dT) at 100 uM.

For the compound `O=C(O[C@@H]1O[C@@H]2COC(=O)c3cc(O)c(O)c(O)c3-c3c(cc(O)c(O)c3O)C(=O)O[C@H]2[C@H](OC(=O)c2cc(O)c(O)c(O)c2)[C@H]1OC(=O)c1cc(O)c(O)c(O)c1)c1cc(O)c(O)c(Oc2c(C(=O)O[C@H]3O[C@@H]4COC(=O)c5cc(O)c(O)c(O)c5-c5c(cc(O)c(O)c5O)C(=O)O[C@H]4[C@H](OC(=O)c4cc(O)c(O)c(O)c4)[C@H]3OC(=O)c3cc(O)c(O)c(O)c3)cc(O)c(O)c2O)c1`, the Activity in [1] was determined as 1%; in experiment [2] it was 13%; in experiment [3], 8%; in experiment [4], 11%; in experiment [5], 25%; in experiment [6], 102%. The Activity is 68% in experiment [7], 73% in [8], 1% in [9] and 4% in experiment [10].
As to `O=C(O[C@@H]1O[C@@H]2COC(=O)c3cc(Oc4c(C(=O)O[C@@H]5O[C@@H]6COC(=O)c7cc(O)c(O)c(O)c7-c7c(cc(O)c(O)c7O)C(=O)O[C@H]6[C@H](OC(=O)c6cc(O)c(O)c(O)c6)[C@H]5OC(=O)c5cc(O)c(O)c(O)c5)cc(O)c(O)c4O)c(O)c(O)c3-c3c(cc(O)c(O)c3O)C(=O)O[C@H]2[C@H](OC(=O)c2cc(O)c(O)c(O)c2)[C@H]1OC(=O)c1cc(O)c(O)c(O)c1)c1cc(O)c(O)c(O)c1`, the Activity worked out at 2% in experiment [1]; 12% in [2]; 12% in [3]; 7% in experiment [4]; 16% in experiment [5]; 111% in experiment [6]. The Activity in [7] worked out at 54%; in [8], 55%; in experiment [9], 6%; in [10], 5%.
For `O=C(O[C@@H]1O[C@@H]2COC(=O)c3cc(O)c(O)c(O)c3-c3c(cc(O)c(O)c3O)C(=O)O[C@H]([C@H]1O)[C@@H]2O)c1cc(O)c(O)c(O)c1`, the Activity amounted to 0% in [1]; 64% in experiment [2]; 30% in experiment [3]; 88% in experiment [4]; 92% in experiment [5]; 92% in experiment [6]. Besides, the Activity in experiment [7] stood at 72%; in [8], 88%; in experiment [9], 3%; in experiment [10], 25%.
In the case of `Oc1cc(O)c2c(c1)O[C@H](c1ccc(O)c(O)c1)[C@H](O)[C@H]2c1c(O)cc(O)c2c1O[C@H](c1ccc(O)c(O)c1)[C@H](O)C2`, the Activity is 9% in experiment [1]; 80% in experiment [2]; 64% in experiment [3]; 97% in experiment [4]; 116% in experiment [5]; 85% in experiment [6]. The Activity in experiment [7] was 93%; in experiment [8], 102%; in [9], 55%; in experiment [10], 98%.
Consider `O=C(O)C[C@@H]1C(=O)O[C@H]2[C@@H]3OC(=O)c4cc(O)c(O)c(O)c4-c4c(cc(O)c(O)c4O)C(=O)OC[C@H]2O[C@@H](OC(=O)c2cc(O)c(O)c(O)c2)[C@@H]3OC(=O)c2cc(O)c(O)c3c2[C@H]1[C@H](O)C(=O)O3`, for which the Activity in experiment [1] was found to be 8%; in [2], 74%; in [3], 68%; in experiment [4], 48%; in [5], 90%; in experiment [6] it was 94%. Further, the Activity in experiment [7] came to 67%; in [8] it was 106%; in experiment [9] it was 6%; in experiment [10], 31%.
As to `O=C(O)c1cc(O)c(O)c(O)c1`, the Activity in [1] turned out to be 98%; in experiment [2] it was 99%; in experiment [3] it was 91%; in experiment [4], 75%; in [5], 93%; in experiment [6], 122%. The Activity was determined as 103% in experiment [7], 84% in [8], 78% in experiment [9] and 75% in experiment [10].
For the compound `O=C1O[C@@H]2[C@@H](OC(=O)c3cc(O)c(O)c(O)c3-c3c1cc(O)c(O)c3O)[C@H](O)O[C@@H]1COC(=O)c3cc(O)c(O)c(O)c3-c3c(O)c(O)c4oc(=O)c5c(c(O)c(O)c6oc(=O)c3c4c65)-c3c(cc(O)c(O)c3O)C(=O)O[C@@H]21`, the Activity in [1] stood at 4%; in experiment [2], 18%; in experiment [3], 9%; in experiment [4], 19%; in experiment [5] it was 22%; in [6] it was 85%. Moreover, the Activity in [7] turned out to be 76%; in [8], 85%; in experiment [9] it was 2%; in experiment [10], 11%.
With `O=c1oc2c(O)c(O)cc3c(=O)oc4c(O)c(O)cc1c4c23`, the Activity in experiment [1] was determined as 3%; in experiment [2], 49%; in [3], 20%; in experiment [4], 45%; in experiment [5], 77%; in [6], 71%. The Activity in experiment [7] is 80%; in [8], 93%; in [9], 0%; in [10] it was 18%.
With `O=C1OC[C@H]2O[C@@H](O)[C@H](O)[C@@H](O)[C@@H]2OC(=O)c2cc(O)c(O)c(O)c2-c2c(O)c(O)c3oc(=O)c4c(c(O)c(O)c5oc(=O)c2c3c54)-c2c1cc(O)c(O)c2O`, the Activity in experiment [1] turned out to be 6%; in experiment [2], 64%; in experiment [3], 31%; in [4], 35%; in [5], 62%; in experiment [6], 105%. Moreover, the Activity in experiment [7] turned out to be 109%; in [8] it was 119%; in [9] it was 1%; in experiment [10], 8%.
For `O=C[C@H](OC(=O)c1cc(O)c(O)c(O)c1)[C@@H](OC(=O)c1cc(O)c(O)c(O)c1)[C@@H]1OC(=O)c2cc(O)c(O)c(O)c2-c2c(cc(Oc3c(C(=O)O[C@@H](C=O)[C@@H](OC(=O)c4cc(O)c(O)c(O)c4)[C@@H]4OC(=O)c5cc(O)c(O)c(O)c5-c5c(cc(O)c(O)c5O)C(=O)OC[C@H]4O)cc(O)c(O)c3O)c(O)c2O)C(=O)OC[C@H]1O`, the Activity came out at 15% in [1]; 22% in experiment [2]; 10% in experiment [3]; 4% in experiment [4]; 19% in [5]; 105% in experiment [6]. In addition, the Activity was 76% in experiment [7], 82% in experiment [8], 6% in experiment [9] and 6% in experiment [10].
For `O=C(OC[C@H]1O[C@@H](OC(=O)c2cc(O)c(O)c(O)c2)[C@H](OC(=O)c2cc(O)c(O)c(O)c2)[C@@H](OC(=O)c2cc(O)c(O)c(O)c2)[C@@H]1OC(=O)c1cc(O)c(O)c(O)c1)c1cc(O)c(O)c(O)c1`, the Activity in [1] was 15%; in [2] it was 44%; in experiment [3], 27%; in experiment [4], 30%; in experiment [5] it was 39%; in experiment [6], 80%. For the same compound, the Activity turned out to be 62% in experiment [7], 67% in [8], 7% in [9] and 25% in [10].
Consider `COc1cc2c[n+](C)c3c4cc5c(cc4ccc3c2cc1OC)OCO5`, for which the Activity was 2% in experiment [1]; 88% in experiment [2]; 5% in experiment [3]; 11% in [4]; 102% in experiment [5]; 116% in experiment [6]. Further, the Activity in [7] was found to be 85%; in experiment [8], 85%; in experiment [9], 1%; in experiment [10], 1%.
In the case of `O=C[C@@H]1OC(=O)c2c3c(O)c(O)c(O)c2-c2c(cc(O)c(O)c2O)C(=O)O[C@H]1[C@@H]1OC(=O)c2c(c(O)c(O)c(O)c2-c2c(cc(O)c(O)c2O)C(=O)O[C@H]1COC(=O)c1cc(O)c(O)c(O)c1)O[C@H]1[C@@H]2OC(=O)c4cc(O)c(O)c(O)c4-c4c(cc(O)c(O)c4O)C(=O)O[C@H]2[C@H](OC(=O)c2cc(O)c(O)c(O)c2)O[C@@H]1CO3`, the Activity in experiment [1] amounted to 20%; in experiment [2], 22%; in experiment [3], 14%; in experiment [4] it was 4%; in [5], 24%; in experiment [6], 106%. Moreover, the Activity in experiment [7] is 73%; in experiment [8], 66%; in [9], 3%; in experiment [10] it was 5%.
As to `O=C(O[C@H]1O[C@@H]2COC(=O)c3cc(O)c(O)c(O)c3-c3c(cc(O)c(O)c3O)C(=O)O[C@H]2[C@@H]2OC(=O)c3cc(O)c(O)c(O)c3-c3c(cc(O)c(O)c3O)C(=O)O[C@@H]12)c1cc(O)c(O)c(Oc2c(C(=O)O[C@H]3O[C@@H]4COC(=O)c5cc(O)c(O)c(O)c5-c5c(cc(O)c(O)c5O)C(=O)O[C@H]4[C@@H]4OC(=O)c5cc(O)c(O)c(O)c5-c5c(cc(O)c(O)c5O)C(=O)O[C@@H]34)cc(O)c(O)c2O)c1`, the Activity in experiment [1] is 6%; in experiment [2], 7%; in experiment [3] it was 5%; in experiment [4], 20%; in [5] it was 27%; in experiment [6], 80%. In addition, the Activity in experiment [7] came to 68%; in [8], 86%; in experiment [9], 2%; in experiment [10] it was 19%.

For the origin of these results see ChEMBL document CHEMBL1151661, “Inhibitory effect of tannins on reverse transcriptase from RNA tumor virus” (J Nat Prod, 1985).
